Assay results published in ChEMBL document CHEMBL1156344, “New bisdesmosidic triterpene saponins from the roots of Pulsatilla chinensis” (J Nat Prod, 2001).
Calls of active or inactive are those of the source. The rule behind the calls is not given here.

Test system: HL-60
Assay: Cytotoxicity against human HL60 cells at 10 ug/mL by MTT assay
Assay type: functional, cell-based

Row | SMILES | Activity
1 | C=C(C)[C@@H]1CC[C@]2(C(=O)O[C@@H]3O[C@H](CO[C@@H]4O[C@H](CO)[C@@H](O[C@@H]5O[C@@H](C)[C@H](O)[C@@H](O)[C@H]5O)[C@H](O)[C@H]4O)[C@@H](O)[C@H](O)[C@H]3O)CC[C@]3(C)[C@H](CC[C@@H]4[C@@]5(C)CC[C@H](O[C@@H]6OC[C@H](O[C@@H]7O[C@H](CO)[C@@H](O[C@@H]8O[C@H](CO)[C@@H](O)[C@H](O)[C@H]8O)[C@H](O)[C@H]7O)[C@H](O)[C@H]6O[C@@H]6O[C@@H](C)[C@H](O)[C@@H](O)[C@H]6O)[C@@](C)(CO)[C@@H]5CC[C@]43C)[C@@H]12 | inactive
2 | C=C(C)[C@@H]1CC[C@]2(C(=O)O[C@@H]3O[C@H](CO[C@@H]4O[C@H](CO)[C@@H](O[C@@H]5O[C@@H](C)[C@H](O)[C@@H](O)[C@H]5O)[C@H](O)[C@H]4O)[C@@H](O)[C@H](O)[C@H]3O)CC[C@]3(C)[C@H](CC[C@@H]4[C@@]5(C)CC[C@H](O[C@@H]6OC[C@H](O)[C@H](O)[C@H]6O[C@@H]6O[C@@H](C)[C@H](O)[C@@H](O)[C@H]6O)C(C)(C)[C@@H]5CC[C@]43C)[C@@H]12 | inactive
3 | C=C(C)[C@@H]1CC[C@]2(C(=O)O[C@@H]3O[C@H](CO[C@@H]4O[C@H](CO)[C@@H](O[C@@H]5O[C@@H](C)[C@H](O)[C@@H](O)[C@H]5O)[C@H](O)[C@H]4O)[C@@H](O)[C@H](O)[C@H]3O)CC[C@]3(C)[C@H](CC[C@@H]4[C@@]5(C)CC[C@H](O[C@@H]6OC[C@H](O)[C@H](O)[C@H]6O)[C@@](C)(CO)[C@@H]5CC[C@]43C)[C@@H]12 | inactive
4 | C=C(C)[C@@H]1CC[C@]2(C(=O)O)CC[C@]3(C)[C@H](CC[C@@H]4[C@@]5(C)CC[C@H](O[C@@H]6OC[C@H](O)[C@H](O)[C@H]6O[C@@H]6O[C@@H](C)[C@H](O)[C@@H](O)[C@H]6O)[C@@](C)(CO)[C@@H]5CC[C@]43C)[C@@H]12 | inactive
5 | C=C(C)[C@@H]1CC[C@]2(C(=O)O[C@@H]3O[C@H](CO[C@@H]4O[C@H](CO)[C@@H](O[C@@H]5O[C@@H](C)[C@H](O)[C@@H](O)[C@H]5O)[C@H](O)[C@H]4O)[C@@H](O)[C@H](O)[C@H]3O)CC[C@]3(C)[C@H](CC[C@@H]4[C@@]5(C)CC[C@H](O[C@@H]6OC[C@H](O)[C@H](O)[C@H]6O[C@@H]6O[C@@H](C)[C@H](O)[C@@H](O)[C@H]6O)[C@@](C)(CO)[C@@H]5CC[C@]43C)[C@@H]12 | inactive
6 | C[C@@H]1O[C@@H](O[C@H]2[C@H](O[C@H]3CC[C@@]4(C)[C@@H](CC[C@]5(C)[C@@H]4CC[C@@H]4[C@H]6[C@H](C(C)(C)O)CC[C@]6(C(=O)O[C@@H]6O[C@H](CO[C@@H]7O[C@H](CO)[C@@H](O[C@@H]8O[C@@H](C)[C@H](O)[C@@H](O)[C@H]8O)[C@H](O)[C@H]7O)[C@@H](O)[C@H](O)[C@H]6O)CC[C@]45C)[C@]3(C)CO)OC[C@H](O)[C@@H]2O)[C@H](O)[C@H](O)[C@H]1O | inactive
7 | C=C(C)[C@@H]1CC[C@]2(C(=O)O[C@@H]3O[C@H](CO[C@@H]4O[C@H](CO)[C@@H](O[C@@H]5O[C@@H](C)[C@H](O)[C@@H](O)[C@H]5O)[C@H](O)[C@H]4O)[C@@H](O)[C@H](O)[C@H]3O)CC[C@]3(C)[C@H](CC[C@@H]4[C@@]5(C)CC[C@H](O[C@@H]6OC[C@H](O[C@@H]7O[C@H](CO)[C@@H](O)[C@H](O)[C@H]7O)[C@H](O)[C@H]6O[C@@H]6O[C@@H](C)[C@H](O)[C@@H](O)[C@H]6O)[C@@](C)(CO)[C@@H]5CC[C@]43C)[C@@H]12 | inactive
